Test results reported in US10285982B2, “3-(1H-pyrrolo[2,3-B]pyridin-2-yl)-1H-pyrazolo[3,4-C]pyridines and therapeutic uses thereof” (Samumed, LLC, priority 2015, dated 2019).

Key:
[1] = test system: primary human fibroblasts derived from IPF patients (LL29 cells) treated with TGF-β1; assay: Inhibition of fibrotic process, αSMA staining in TGF-β1 treated LL29 fibroblasts; assay type: cell-based; details: Fibroblast; for EC50: 96 h, % αSMA positive LL29 cells, TGF-β1 20 ng/mL, 4 days; for inhibition at 10 µM: given where EC50 >10 μM, αSMA, LL29 cells, TGF-β1, read-out: percent inhibition at 10 μM
In short: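 EC50 values come from non-linear fits of the αSMA-positive percentage among SYTOX-excluded live cells, normalized to TGF-β1 plus DMSO controls, or appear as % inhibition at 10 μM when above 10 μM. Fibrosis was induced in IPF-derived LL29 fibroblasts by 20 ng/mL TGF-β1 over 4 days, with 1:2 compound dilutions from 10 μM.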

[2] = test system: primary human mesenchymal stem cells (hMSCs); assay: Chondrogenesis induction in hMSCs (nodule count); assay type: cell-based; details: 144 h, hMSC chondrogenesis, 6 days; for Emax: relative to TGF-β3 (10 ng/mL) positive control, read-out: Max. Activity as % TGF-β3 activity; for EC50: concentration required to induce 50% of TGF-β3 level, read-out: Conc. (nM) of 50% TGF-β3 activity
Method: Representative compounds were screened using primary human mesenchymal stem cells (hMSCs) to determine their ability to induce chondrogenesis (process by which cartilage is developed).
Primary human mesenchymal stem cells (hMSCs) were purchased from Lonza (Walkersville, Md.) and expanded in Mesenchymal Stem Cell Growth Media (Lonza). Cells between passage 3 and 6 were used for the experiments.
Each compound was dissolved in DMSO as a 10 mM stock and used to prepare compound source plates. Serial dilution (1:3, 6-point dose-response curves from 2700 nM to 10 nM) and compound transfer was performed using the ECHO 550 (Labcyte, Sunnyvale, Calif.) into 96-well clear bottom assay plates (Greiner Bio-One) with appropriate DMSO backfill for a final DMSO concentration of 0.03%. hMSCs were plated at 20,000 cells/well in 250 μL/well Incomplete Chondrogenic Induction Medium (Lonza; DMEM, dexamethasone, ascorbate, insulin-transferrin-selenium [ITS supplement], gentamycin-amphotericin [GA-1000], sodium pyruvate, proline and L-glutamine). TGF-β3 (10 ng/mL) was used as a positive control for differentiation while negative control wells were treated with 75 nL DMSO for normalization and calculating EC50 values. Cells were incubated at 37° C. and 5% CO2 for 6 days. To image chondrogenic nodules, the cells were fixed using 4% formaldehyde (Electron Microscopy Sciences), and stained with 2 μg/mL Rhodamine B (Sigma-Aldrich) and 20 μM Nile Red (Sigma-Aldrich) [Johnson K., et. al, A Stem Cell-Based Approach to Cartilage Repair, Science, (2012), 336(6082), 717-721]. The nodules imaged (4 images per well at 4× magnification) by excitation at 531 nm and emission at 625 nm and quantified using the CellInsight CX5 (Thermo Scientific). Number of nodules in each well was normalized to the average of 3 DMSO treated wells on the same plate using Excel (Microsoft Inc.). The normalized averages (fold change over DMSO) of 3 replicate wells for each compound concentration were calculated. Due to solubility limitations of some of the compounds, curve fitting was incomplete leading to inaccurate EC50 determinations.
Using TGF-β3 as a positive control, the concentration of representative compounds required to induce 50% levels of chondrogenesis is reported. In addition, the maximum activity of each compound and the respective dose that each compound reached maximum chondrogenesis activity is reported.

EC50 [2] [nM]	Structure (SMILES)	EC50 [1] [nM]	Emax [2] [%]	inhibition at 10 µM [1] [%]
	c1cncc(-c2cc3c(-c4cc5cccnc5[nH]4)n[nH]c3cn2)c1 [Compound 256, 5-(Pyridin-3-yl)-3-(1H-pyrrolo[2,3-b]pyridin-2-yl)-1H-pyrazolo[3,4-c]pyridine]	1700	28	
	O=C(Nc1cncc(-c2cc3c(-c4cc5cccnc5[nH]4)n[nH]c3cn2)c1)C1CC1 [Compound 272, N-(5-(3-(1H-Pyrrolo[2,3-b]pyridin-2-yl)-1H-pyrazolo[3,4-c]pyridin-5-yl)pyridin-3-yl)cyclopropanecarboxamide]	9980	18	
	FC1(F)CCN(Cc2cncc(-c3cc4c(-c5cc6cccnc6[nH]5)n[nH]c4cn3)c2)C1 [Compound 278, 5-(5-((3,3-Difluoropyrrolidin-1-yl)methyl)pyridin-3-yl)-3-(1H-pyrrolo[2,3-b]pyridin-2-yl)-1H-pyrazolo[3,4-c]pyridine]	111	45	
10	CCCC(=O)Nc1cncc(-c2cc3c(-c4cc5c(-c6cc(F)cc(NCCN(C)C)c6)ccnc5[nH]4)n[nH]c3cn2)c1 [Compound 465, N-(5-(3-(4-(3-((2-(Dimethylamino)ethyl)amino)-5-fluorophenyl)-1H-pyrrolo [2,3-b]pyridin-2-yl)-1H-pyrazolo[3,4-c]pyridin-5-yl)pyridin-3-yl)butyramide]	> 10000	162	43
	CN(C)CCNc1cc(F)cc(-c2ccnc3[nH]c(-c4n[nH]c5cnc(-c6cncnc6)cc45)cc23)c1 [Compound 475, N^1-(3-Fluoro-5-(2-(5-(pyrimidin-5-yl)-1H-pyrazolo[3,4-c]pyridin-3-yl)-1H-pyrrolo[2,3-b]pyridin-4-yl)phenyl)-N^2,N^2-dimethylethane-1,2-diamine]	> 10000	17	27.5
10	CN1CCN(c2ccnc3[nH]c(-c4n[nH]c5cnc(-c6cn[nH]c6)cc45)cc23)CC1 [Compound 635, 3-(4-(4-Methylpiperazin-1-yl)-1H-pyrrolo[2,3-b]pyridin-2-yl)-5-(1H-pyrazol-4-yl)-1H-pyrazolo[3,4-c]pyridine]	> 10000	63	44.9
100	CN1CCN(c2ccnc3[nH]c(-c4n[nH]c5cnc(-c6cncc(NC(=O)CC7CCNCC7)c6)cc45)cc23)CC1 [Compound 641, N-(5-(3-(4-(4-Methylpiperazin-1-yl)-1H-pyrrolo[2,3-b]pyridin-2-yl)-1H-pyrazolo[3,4-c]pyridin-5-yl)pyridin-3-yl)-2-(piperidin-4-yl)acetamide]	4970	341	
